In patent publication US20100234464A1, “COMPOUNDS FOR THE TREATMENT OF METABOLIC DISORDERS” (WELLSTAT THERAPEUTICS CORPORATION, priority 2006, published 2010):

Test system: male db/db mice
Test: Antidiabetic efficacy of oral compound in male db/db mice (nonfasting serum glucose and triglycerides after 14 days)
Format: in vivo
Settings: for Serum triglycerides, Mean ± SEM / Serum glucose, Mean ± SD: 100 mg/kg/day oral gavage once daily for 2 weeks, nonfasting serum, N = 5 mice/group; for Serum triglycerides, Mean ± SEM: vehicle 220.8 ± 62.1; for Serum glucose, Mean ± SD: vehicle 735.0 ± 66.0; for Effect on nonfasting serum glucose relative to vehicle-treated mice (in words) / Effect on nonfasting serum triglycerides relative to vehicle-treated mice (in words): 100 mg/kg/day oral, 2 weeks
Excerpt: Male db/db mice have a defect in the receptor for the appetite-regulating protein leptin and consequently develop hyperphagia, obesity, insulin resistance, hyperglycemia, and hypertriglyceridemia. Furthermore, male db/db mice undergo progressive islet failure, resulting in a transition from hyperinsulinemia to insulin deficiency.
Male db/db mice (10 weeks old) were divided into weight-matched groups of 5 mice each. Age-matched male C57BL/6 mice were used as lean control animals. Mice received once-daily oral (gavage) doses of the vehicle (1% hydroxypropylmethylcellulose in water), Compound BI, Compound CF, or Compound DN for two weeks. Treatment groups and drug doses were as follows. • 1. Vehicle • 2. Compound BI 100 mg/kg/day • 3. Compound CF 100 mg/kg/day • 4. Compound DN 100 mg/kg/day
Nonfasting blood samples were collected after 14 days of treatment for determination of serum glucose, triglycerides, and free fatty acids.

| Structure (SMILES) | Serum triglycerides, Mean ± SEM | Serum glucose, Mean ± SD | Effect on nonfasting serum glucose relative to vehicle-treated mice (in words) | Effect on nonfasting serum triglycerides relative to vehicle-treated mice (in words) |
| --- | --- | --- | --- | --- |
| O=C(O)Cc1cccc(OCc2ccc(C(F)(F)F)cc2C(F)(F)F)c1 [Compound DN, 3-(2,4-Bis(trifluoromethyl)benzyloxy)phenylacetic acid] | 157.2 ± 40.3 mg/dL | 396.0 ± 84.0 mg/dL | significantly reduced | significantly reduced |
| Cc1cccc(C)c1COc1cccc(C(=O)CCC(=O)O)c1 [Compound BI, 4-(3-(2,6-Dimethylbenzyloxy)phenyl)-4-oxobutyric acid] | 85.8 ± 13.0 mg/dL | 257.0 ± 57.0 mg/dL | significantly reduced | significantly reduced |
| Cc1cccc(C)c1COc1cccc(CC(=O)O)c1 [Compound CF, 3-(2,6-Dimethylbenzyloxy)phenylacetic acid] | 90.5 ± 17.4 mg/dL | 441.0 ± 162.0 mg/dL | significantly reduced | significantly reduced |
